Source: patent publication US9296741B2, “Bromodomain inhibitors” (priority 2012, dated 2016)
pEC50, pKi: −log10 of the molar value.

What was measured:
[1] = test system: breast cancer cell line MX-1; test: MX-1 cell line proliferation assay; assay type: cell-based, human; details: Homo sapiens, MX1, 72 h; MX-1 cells, 3-day proliferation, Cell Titer Glo; read-out: Cellular proliferation: EC50
[2] = Mouse liver microsome stability assay; assay type: in vitro ADME; details: male, CD1, mouse, microsomes, pH 7.4
[3] = biological target: human BRD4 second bromodomain (BDII_E352-M457) (Homo sapiens (Human), UniProt O60885); test: TR-FRET bromodomain binding assay, BRD4 second bromodomain
[4] = biological target: human BRD4 first bromodomain (BDI_K57-E168) (Homo sapiens (Human), UniProt O60885); test: TR-FRET bromodomain binding assay, BRD4 first bromodomain
[5] = Human liver microsome stability assay; assay type: in vitro ADME; details: both sexes, human, microsomes, pH 7.4
[6] = Rat liver microsome stability assay; assay type: in vitro ADME; details: rat liver microsomes (male Sprague-Dawley), 0.5 μM test compound, 0.25 mg/mL microsomal protein, pH 7.4, 37° C.; read-out: Stability in rat liver microsomes (t1/2 in minutes)

Structure (SMILES)	pEC50 [1]	half-life at 0.5 μM [2]	pKi [3]	pKi [4]	half-life at 0.5 μM [5]	half-life at 0.5 μM [6]
Cn1cc(-c2cc(-c3cccnc3)ccc2OCC2CC2)c2cc[nH]c2c1=O [Example 315, 4-[2-(cyclopropylmethoxy)-5-(pyridin-3-yl)phenyl]-6-methyl-1,6-dihydro-7H-pyrrolo[2,3-c]pyridin-7-one]	6.80	11 min	6.64	7.42	34 min	4 min
CCS(=O)(=O)c1ccc(Oc2cccc(CO)c2)c(-c2cn(C)c(=O)c3[nH]ccc23)c1 [Example 317, 4-{5-(ethylsulfonyl)-2-[3-(hydroxymethyl)phenoxy]phenyl}-6-methyl-1,6-dihydro-7H-pyrrolo[2,3-c]pyridin-7-one]	7.77	83 min	8.44	8.17	88 min	115 min
Cn1cc(-c2ccc(OCC3CC3)c(-c3cn(C)c(=O)c4[nH]ccc34)c2)cn1 [Example 318, 4-[2-(cyclopropylmethoxy)-5-(1-methyl-1H-pyrazol-4-yl)phenyl]-6-methyl-1,6-dihydro-7H-pyrrolo[2,3-c]pyridin-7-one]	< 5.52	13 min	6.20	6.46	35 min	24 min
Cn1cc(-c2cc(S(=O)(=O)N3CCc4ccccc43)ccc2Oc2ccc(F)cc2F)c2cc[nH]c2c1=O [Example 319, 4-[2-(2,4-difluorophenoxy)-5-(2,3-dihydro-1H-indol-1-ylsulfonyl)phenyl]-6-methyl-1,6-dihydro-7H-pyrrolo[2,3-c]pyridin-7-one]	6.36	2 min	8.00	6.43	2 min	2 min
CCS(=O)(=O)c1ccc(Oc2ccc(F)cc2F)c(-c2cn(C)c(=O)c3[nH]ncc23)c1 [Example 322, 4-[2-(2,4-difluorophenoxy)-5-(ethylsulfonyl)phenyl]-6-methyl-1,6-dihydro-7H-pyrazolo[3,4-c]pyridin-7-one]	7.18	> 120 min	7.34	6.74	> 120 min	57 min
Cn1cc(-c2cc(C3=CCN(C(=O)OC(C)(C)C)CC3)ccc2OCC2CC2)c2cc[nH]c2c1=O [Example 325, tert-butyl 4-[4-(cyclopropylmethoxy)-3-(6-methyl-7-oxo-6,7-dihydro-1H-pyrrolo[2,3-c]pyridin-4-yl)phenyl]-3,6-dihydropyridine-1(2H)-carboxylate]	6.15	8 min	6.70	6.81	21 min	10 min
Cn1cc(-c2cc(-c3ccc(N)nc3)ccc2OCC2CC2)c2cc[nH]c2c1=O [Example 326, 4-[5-(6-aminopyridin-3-yl)-2-(cyclopropylmethoxy)phenyl]-6-methyl-1,6-dihydro-7H-pyrrolo[2,3-c]pyridin-7-one]	6.54	27 min	6.57	6.84	112 min	5 min
CCS(=O)(=O)c1ccc(OCC2CC2(F)F)c(-c2cn(C)c(=O)c3[nH]c(C(=O)NCC(F)(F)F)cc23)c1 (stereo not drawn) [Example 327, 4-{2-[(2,2-difluorocyclopropyl)methoxy]-5-(ethylsulfonyl)phenyl}-6-methyl-7-oxo-N-(2,2,2-trifluoroethyl)-6,7-dihydro-1H-pyrrolo[2,3-c]pyridine-2-carboxamide]	7.45	> 120 min	8.38	8.07	> 120 min	> 120 min
Cn1cc(-c2cc(S(C)(=O)=O)ccc2Nc2ccc(F)cc2)c2cc[nH]c2c1=O [Example 332, 4-{2-[(4-fluorophenyl)amino]-5-(methylsulfonyl)phenyl}-6-methyl-1,6-dihydro-7H-pyrrolo[2,3-c]pyridin-7-one]	7.27	> 120 min	7.51	7.52	65 min	70 min
Cn1cc(-c2cc(CC#N)ccc2OCC2CC2)c2cc[nH]c2c1=O [Example 336, [4-(cyclopropylmethoxy)-3-(6-methyl-7-oxo-6,7-dihydro-1H-pyrrolo[2,3-c]pyridin-4-yl)phenyl]acetonitrile]	6.94	17 min	6.82	7.12	44 min	5 min
CCS(=O)(=O)Nc1ccc(Oc2ccc(F)cc2F)c(-c2cn(C)c(=O)c3[nH]c(CO)cc23)c1 [Example 337, N-{4-(2,4-difluorophenoxy)-3-[2-(hydroxymethyl)-6-methyl-7-oxo-6,7-dihydro-1H-pyrrolo[2,3-c]pyridin-4-yl]phenyl}ethanesulfonamide]	7.80	> 120 min	8.38	8.37	> 120 min	> 120 min
CCS(=O)(=O)Nc1ccc(Oc2ccc(F)cc2F)c(-c2cn(C)c(=O)c3[nH]c(C(=O)N4CCN(C)CC4)cc23)c1 [Example 338, N-[4-(2,4-difluorophenoxy)-3-{6-methyl-2-[(4-methylpiperazin-1-yl)carbonyl]-7-oxo-6,7-dihydro-1H-pyrrolo[2,3-c]pyridin-4-yl}phenyl]ethanesulfonamide]	7.11	20 min	7.90	9.07	39 min	29 min
CCS(=O)(=O)Nc1ccc(Oc2ccc(F)cc2F)c(-c2cn(C)c(=O)c3[nH]c(CN4CCN(C)CC4)cc23)c1 [Example 339, N-[4-(2,4-difluorophenoxy)-3-{6-methyl-2-[(4-methylpiperazin-1-yl)methyl]-7-oxo-6,7-dihydro-1H-pyrrolo[2,3-c]pyridin-4-yl}phenyl]ethanesulfonamide]	7.11	67 min	7.50	9.10	100 min	76 min
CCS(=O)(=O)N(CC1CCCO1)c1ccc(Oc2ccc(F)cc2F)c(-c2cn(C)c(=O)c3[nH]ccc23)c1 (stereo not drawn) [Example 345, N-[4-(2,4-difluorophenoxy)-3-(6-methyl-7-oxo-6,7-dihydro-1H-pyrrolo[2,3-c]pyridin-4-yl)phenyl]-N-(tetrahydrofuran-2-ylmethyl)ethanesulfonamide]	6.32	2 min	7.49	6.89	2 min	4 min
CCS(=O)(=O)N(CCC(F)(F)F)c1ccc(Oc2ccc(F)cc2F)c(-c2cn(C)c(=O)c3[nH]ccc23)c1 [Example 346, N-[4-(2,4-difluorophenoxy)-3-(6-methyl-7-oxo-6,7-dihydro-1H-pyrrolo[2,3-c]pyridin-4-yl)phenyl]-N-(3,3,3-trifluoropropyl)ethanesulfonamide]	6.67	2 min	7.80	7.02	4 min	5 min
Cn1cc(-c2cc(-c3ccc(F)nc3)ccc2OCC2CC2)c2cc[nH]c2c1=O [Example 348, 4-[2-(cyclopropylmethoxy)-5-(6-fluoropyridin-3-yl)phenyl]-6-methyl-1,6-dihydro-7H-pyrrolo[2,3-c]pyridin-7-one]	6.00	25 min	6.37	6.80	> 120 min	2 min
CCS(=O)(=O)Nc1ccc(Oc2ccc(F)cc2F)c(-c2cn(C)c(=O)c3[nH]cc(C=O)c23)c1 [Example 349, N-[4-(2,4-difluorophenoxy)-3-(3-formyl-6-methyl-7-oxo-6,7-dihydro-1H-pyrrolo[2,3-c]pyridin-4-yl)phenyl]ethanesulfonamide]	7.49	36 min	8.51	8.18	> 120 min	39 min
CCS(=O)(=O)Nc1ccc(Oc2ccc(F)cc2F)c(-c2cn(C)c(=O)c3[nH]cc(CN4CCN(C)CC4)c23)c1 [Example 351, N-[4-(2,4-difluorophenoxy)-3-{6-methyl-3-[(4-methylpiperazin-1-yl)methyl]-7-oxo-6,7-dihydro-1H-pyrrolo[2,3-c]pyridin-4-yl}phenyl]ethanesulfonamide]	5.96	30 min	6.82	6.65	76 min	66 min
Cn1cc(-c2cc(-c3cccc(C#N)c3)ccc2OCC2CC2)c2cc[nH]c2c1=O [Example 353, 4′-(cyclopropylmethoxy)-3′-(6-methyl-7-oxo-6,7-dihydro-1H-pyrrolo[2,3-c]pyridin-4-yl)biphenyl-3-carbonitrile]	6.10	10 min	6.59	6.80	40 min	8 min
Cn1cc(-c2cc(S(=O)(=O)N3CCC(O)CC3)ccc2OCC2CC2)c2cc[nH]c2c1=O [Example 354, 4-{2-(cyclopropylmethoxy)-5-[(4-hydroxypiperidin-1-yl)sulfonyl]phenyl}-6-methyl-1,6-dihydro-7H-pyrrolo[2,3-c]pyridin-7-one]	7.02	24 min	7.89	7.18	23 min	41 min
